Measured values from US7776572B2, “Method for reducing loss of enzyme activity during storage” (Corning Incorporated, priority 1996, dated 2010).
Marks after values point to notes of the source that are not given here.

What was measured:
[1] = test system: BSA protein (Bovine Serum Albumin, Fraction V); assay: BSA binding to coated polystyrene 24-well plates at different pH, colloidal gold stain; details: for Absorbance (550 nm) pH = 9.2: BSA 10 μg/ml in 0.10 M NaHCO3 buffer; for Absorbance (550 nm) pH = 7.4: BSA 10 μg/ml in 0.10 M PBS; for Absorbance (550 nm) pH = 4.6: BSA 10 μg/ml in 0.10 M acetate buffer
Description: Polystyrene plates having 24 wells (Corning Costar #9447) were coated as described in Materials and Methods.
BSA protein (Bovine Serum Albumin, Fraction V, Sigma) was prepared at 10 μg/ml in 0.10 M acetate buffer (pH=4.6), in 0.10 M PBS (pH=7.4), and in 0.10 M NaHCO3 buffer (pH=9.2). Wells of each coated plate, along with uncoated controls, were aliquoted 0.50 ml each of the protein solutions. The samples were run in triplicate.
The plates were placed on a rocker table for 30 minutes at 23° C. The protein solutions were then emptied from the plates, and the wells were rinsed three times with dl H2O. Thereafter, 1.0 ml of colloidal gold stain was added to each well (see Materials and Methods). The plates were placed on a rocker table overnight, rinsed three times with dI H2O, and air dried. Absorbance at 550 nm was then read using the Cambridge Technologies Plate Reader.

Horse IgG = assay: Protein binding by colloidal gold staining, coated medium binding polystyrene plates; details: coated medium binding PS; IgG 10 μg/ml, pH 9.4
Description: Except where indicated, the non-ionic surfactants were applied to the hydrophobic surfaces being tested as a 0.1% (weight/volume) solution in isopropanol. A sufficient amount of coating solution was used to cover the surface being testing with a thin layer of the solution (e.g., 25 μl of the solution per well for a standard 24-well plate). In some cases, the solution was applied to surface by spraying; in others, it was poured onto the surface (into the well). Except where indicated, coated samples were either dried at 70° C. for 30 minutes in an air circulated oven or dried at room temperature overnight to evaporate the isopropanol.
Protein binding was determined in some examples using a colloidal gold straining procedure. In accordance with this procedure, colloidal gold becomes electrostatically attached to bound protein and is detected by measuring absorbance at 550 nanometers. Bio-Rad Laboratories' Colloidal Gold Total Protein Stain was used for this purpose, with absorbance being measured with a Cambridge Technologies Plate Reader (No. 7520).
The surfactants were coated onto medium binding polystyrene plates (Corning Costar No. 2587) as described in Material and Methods.
The plates were incubated with IgG as follows: 0.1 ml of Horse IgG (Pierce Labs) at a working concentration of 10 μg/ml in 0.10M NaHCO3 buffer (pH9.4) were added to each well, incubated 30 minutes on a rocker table, and rinsed with dI H2O. The plates were gold stained overnight (0.3 ml/well), rinsed in dI H2O, air dried, and absorbance was measured at 550 nm.

MDCK cells [2] = assay: Cytotoxicity of extracts of coated plates; type: cell-based; details: media extract of coated plates (37° C., 48 hours), MDCK 72 hours, Gram Crystal Violet
Description: Cytotoxicity experiments were performed using MDCK cells. The non-ionic surfactants tested were Pluronic L-121, L-122, and P-123; Span 80 and 85; and Brij 30, 72 and 93. These molecules were coated onto 24-well plates (Corning Costar #9447) from 0.1% (w/v) in isopropanol. Untreated polystyrene and normal tissue culture treated polystyrene (Corning Costar #25820) 24-well plates were used as controls. All plates were incubated at 37° C. for 48 hours with 2 ml/well of complete DMEM media containing 10% Fetal Bovine Serum (FBS). This incubation was performed in order to extract any potentially toxic compounds from the coated surface into the cell growth serum. The FBS solutions were then transferred to tissue culture treated polystyrene and each well was inoculated with ≈2×10^4 cells/well of MDCK cells, and then incubated at 37° C. for 72 hours in a 5% CO2 atmosphere. Cells were then stained with Gram Crystal Violet.

Fetal Bovine Serum (FBS) = assay: Polymer blends molded into petri dishes, FBS protein binding by colloidal gold
Description: (§3) Low binding non-ionic surfactant molecules were blended at 5% (except as noted in Table 13) into a base polymer using a twin screw extruder, then injection molded into the shape of 35 mm petri dishes. Proteins tested were BSA and Fetal Bovine Serum (FBS). Protein binding was determined using a colloidal gold staining procedure as described above. In the case of the polypropylene and EVA blends, a silver enhancer was used (Sigma Chem. Co., St, Louis, Mo., Kit #SE-100).

BSA = assay: Polymer blends molded into petri dishes, BSA binding by colloidal gold
Description: as §3

[3] = test system: ^125I-IgG (goat anti-mouse); assay: Radiometric determination of IgG binding to surfactant-coated polystyrene microtiter wells; details: for Total IgG binding, Non-Sterilized: coated polystyrene wells; for Total IgG binding, Non-Sterilized / Tight IgG binding, Non-Sterilized: not sterilized; for Total IgG binding, Non-Sterilized / Total IgG binding, Sterilized: after three PBS washes; for Total IgG binding, Sterilized / Tight IgG binding, Sterilized: gamma sterilized (1.5 Mrad); for Tight IgG binding, Sterilized / Tight IgG binding, Non-Sterilized: after two hours in PBS-Tween (0.05%)
Description: The hydrophobic surfaces used were flat bottom microtiter plates composed of high binding polystyrene (Corning Costar No. 2581) and medium binding polystyrene (Corning Costar No. 2587). Testing was performed with and without gamma radiation sterilization using cobalt 60 (1.5 Mrad).
The surfactants were applied to the test plates as described in Materials and Methods, followed by sterilization where indicated.
Levels of protein binding were determined using a radiolabeled protein, namely, ^125I-IgG (goat anti-mouse) purchased from DuPont/NEN. Unlabeled IgG in sodium carbonate buffer pH 9.2 was spiked with ^125I-IgG so that the final concentration of labeled IgG and cold IgG in the test solution was 10 μg/mL.
Aliquots of 0.1 milliliters of the protein solution were placed in quadruplicate in the wells of 8-well strips removed from the test microtiter plates. The wells were incubated overnight at 4° C. with shaking. The supernatants were removed from the wells, followed by three washes with 0.2 mL of PBS. The wells were then dried and individually counted to determine “total” IgG binding. After determining “total” binding, the wells were incubated for two hours in 0.2 mL of PBS-Tween (0.05%) at room temperature with shaking. The supernatants were removed from the wells followed by three washes with 0.2 mL of PBS. The wells were dried and individually counted to determine “tight” IgG binding.
Untreated high binding and medium binding plates were used as controls. A comparative experiment was also performed in which a BSA protein coating was used in place of a surfactant coating. The BSA was preabsorbed onto the walls of the wells and then washed to remove excess material. Testing was then performed using the radiolabeled IgG solution as described above.
Radiolabel measurements were performed in a double blind study at BioMolecular Assays (Woburn, Mass.). IgG binding values per microwell were converted to ng/cm^2 values using a surface area of 0.94 cm^2 for a 0.1 mL volume.

rat = details: cited from earlier work
HRP-Goat A'Mouse IgG = assay: Enzymatic determination of protein binding to coated medium binding polystyrene plate; details: coated medium binding PS; versus uncoated high binding polystyrene plate; absorbance 405 nm
Description: The surfactants were coated onto a medium binding polystyrene plate (Corning Costar No. 2587) as described in Material and Methods. A medium binding polystyrene plate (Corning Costar No. 2587) and a high binding polystyrene plate (Corning Costar No. 2581) were used as controls.
(a) HRP-Goat A'Mouse IgG: Kirkegaard & Perry Laboratories, Inc. Catalog No. 074-1806. Stock solution: 0.5 mg/ml; working concentration: 0.04 μg/ml. The working concentration was obtained by adding 11 μl of the stock solution per 25 mls of PBS pH 7.4 to produce a work stock (WS), and then diluting 1:6 (i.e., 10 mls WS+50 mls PBS pH 7.4).
(1) 100 μl-well of HRP-Goat A'Mouse IgG at a concentration of 0.04 μg/ml were added to the test wells and incubated for 1 hour at room temperature.
(2) The wells were then washed 5 times with the 1M wash solution. Each wash include a 5 minute soak followed by decanting.
(3) 100 μl/well of substrate (30 mls ABTS+30 mls H2O2) were added to the test wells and incubated for 15 minutes at room temperature in the dark.
(4) 100 μl/well of stopping solution (1% SDS) were added to the test wells.
(5) The plates were then shaken and read at 405 nm.
(6) Reduction in binding was determined by comparing the absorbance measured in step (5) with the absorbance measured for a high binding polystyrene plate which had not been treated with a non-ionic surfactant but otherwise subjected to steps (1) to (5).

bound protein = assay: Colloidal gold staining of bound protein after MDCK culture in media containing 5% FBS, visual; details: colloidal gold after cell culture, visual observation
Description: (§1) The procedures used were as follows. Polystyrene 24-well plates were coated with the non-ionic surfactants listed in Table 5 in accordance with the procedures described in Materials and Methods. Uncoated plates were used as a control. For comparison, plates with a covalently attached acrylamide coating (Corning Costar Catalog #2500) and with a stearic acid coating were also tested. The stearic acid coating was applied in the same manner as the non-ionic surfactants again using a 0.1% (w/v) solution.
(§2) The plates were gamma sterilized at 1.5 Mrad and then inoculated with 5.6×10^4 MDCK […] per well in 1 ml of complete media containing 5% FBS (Fetal Bovine Serum). Incubation was carried out at 37° C. in a 5% CO2 atmosphere for two days. The plates were fixed and stained, and cell attachment was noted. Following this, the wells were stained using the colloidal gold technique to detect bound protein. Only visual observations were made.

IgG = assay: Coating durability using water washes, IgG binding by colloidal gold; details: for Absorbance (550 nm) Initial: coated polystyrene, no water wash; for Absorbance (550 nm) 1 Time 1 hr 23° C. / Absorbance (550 nm) 1 Time 24 hr 23° C. / Absorbance (550 nm) 1 Time 24 hr 37° C. / Absorbance (550 nm) 1 Time 24 hr 70° C.: dI H2O wash 1 time; for Absorbance (550 nm) 6 Times 30 min each 23° C.: dI H2O wash 6 times
Description: Polystyrene plates having 24 wells (Corning Costar #9447) were coated with these surfactants as described in Materials and Methods. Durability was tested by adding dI H2O to the wells of a test plate (3.0 mls/well), following which the plate was placed on a rocker table. […] The protein solution was incubated with the plate on a rocker table for 30 minutes at 23° C., following which the plate was H2O rinse 3× (3 mls each time). The colloidal gold staining procedure described above was used to reveal bound protein. The staining comprised an overnight incubation on a rocker table at 23° C., a dI H2O rinse, drying at room temperature, and reading at 550 nm.

MDCK cells [4] = assay: MDCK cell attachment to coated polystyrene 24-well plates; type: cell-based; details: coated PS 24-well, gamma sterilized, media with 5% FBS, two days, visual
Description: as §1, §2
Experiments were also performed with cells suspended in serum. The cells used in these experiments were MDCK cells. The surfactants used were the same as used in Table 5. Again, reduced binding of the cells to surfaces treated with a non-ionic surfactant was observed.

[5] = blended at 5% into polypropylene, silver enhancer

CCCCCCCCCCCCCCCCCCOCCOCCO [PEO(2) STEARYL ETHER]
Absorbance (550 nm) pH = 9.2 [1]: 0.00
Absorbance (550 nm) pH = 7.4 [1]: 0.00
Absorbance (550 nm) pH = 4.6 [1]: 0.00
IgG Protein Binding Absorbance (550 nm) (Horse IgG): 0.00
cell growth and morphology (MDCK cells [2]): confluent cell growth with normal cell morphology
Bound Protein Absorbance (550 nm) FBS (Fetal Bovine Serum (FBS); [5]): 0.000
Bound Protein Absorbance (550 nm) FBS (Fetal Bovine Serum (FBS); blended at 5% into polystyrene): 0.009
BSA or FBS protein binding (BSA; blend in polypropylene or EVA): no detectable
Bound Protein Absorbance (550 nm) BSA (BSA; [5]): 0.000
Bound Protein Absorbance (550 nm) BSA (BSA; blended at 5% into polystyrene): 0.008
Total IgG binding, Non-Sterilized [3]: 83 ng/cm^2
Total IgG binding, Sterilized [3]: 36 ng/cm^2
Tight IgG binding, Sterilized [3]: 17 ng/cm^2
Tight IgG binding, Non-Sterilized [3]: 28 ng/cm^2
LD50 (rat): >25 grams/Kg
% Reduction in Protein Binding (HRP-Goat A'Mouse IgG): 97.9%

CCCCCCCCCCCCCCCCCC(=O)OCCOCCOCCOCCOCCOCCOCCOCCO [PEO(8) STEARATE]
Absorbance (550 nm) pH = 9.2 [1]: 0.00
Absorbance (550 nm) pH = 7.4 [1]: 0.00
Absorbance (550 nm) pH = 4.6 [1]: 0.00
IgG Protein Binding Absorbance (550 nm) (Horse IgG): 0.00
Total IgG binding, Non-Sterilized [3]: 6 ng/cm^2
Total IgG binding, Sterilized [3]: 15 ng/cm^2
Tight IgG binding, Sterilized [3]: 9 ng/cm^2
Tight IgG binding, Non-Sterilized [3]: 3 ng/cm^2
LD50 (rat): >31 grams/Kg
% Reduction in Protein Binding (HRP-Goat A'Mouse IgG): 99.1%

SORBITOL MONO-PALMITATE
Visual Color Upon Protein Staining (bound protein): None
Absorbance (550 nm) pH = 9.2 [1]: 0.00
Absorbance (550 nm) pH = 7.4 [1]: 0.00
Absorbance (550 nm) pH = 4.6 [1]: 0.00
IgG Protein Binding Absorbance (550 nm) (Horse IgG): 0.00
Absorbance (550 nm) Initial (IgG): 0.00
Absorbance (550 nm) 1 Time 1 hr 23° C. (IgG): 0.00
Absorbance (550 nm) 1 Time 24 hr 23° C. (IgG): 0.00
Absorbance (550 nm) 1 Time 24 hr 37° C. (IgG): 0.00
Absorbance (550 nm) 1 Time 24 hr 70° C. (IgG): 0.00
Absorbance (550 nm) 6 Times 30 min each 23° C. (IgG): 0.02-0.06
MDCK Attachment (MDCK cells [4]): None
% Reduction in Protein Binding (HRP-Goat A'Mouse IgG): 88.9* %

SORBITOL TRI-OLEATE
cell growth and morphology (MDCK cells [2]): confluent cell growth with normal cell morphology
Bound Protein Absorbance (550 nm) FBS (Fetal Bovine Serum (FBS); [5]): 0.000
Absorbance (550 nm) Initial (IgG): 0.00
Absorbance (550 nm) 1 Time 1 hr 23° C. (IgG): 0.00
Absorbance (550 nm) 1 Time 24 hr 23° C. (IgG): 0.00
Absorbance (550 nm) 1 Time 24 hr 37° C. (IgG): 0.00
Absorbance (550 nm) 1 Time 24 hr 70° C. (IgG): 0.00
Absorbance (550 nm) 6 Times 30 min each 23° C. (IgG): 0.00
Bound Protein Absorbance (550 nm) BSA (BSA; [5]): 0.000
